Measurements published in patent US7759345B2, “Antitumoral derivatives of ET-743” (priority 2001, dated 2010).

Assays:
K-562 = assay: Inhibition of cells growth by colorimetric assay (SRB), K-562; type: cell-based; conditions: K-562, SRB, 48 hours exposure
Procedure, shortened: (§1)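 Human cancer and endothelial lines are seeded at 5×10^3 cells per well and, after 18 h, treated for 48 h with compound dissolved in DMSO/EtOH/PBS (0.5:0.5:99) at 10 to 10^−8 μg/ml. Cell mass is quantified by SRB staining (OD 490 nm), and growth inhibition, total growth inhibition and cell kill are calculated from triplicate wells.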

A-549 = assay: Inhibition of cells growth by colorimetric assay (SRB), A-549; type: cell-based; conditions: A-549, SRB, 48 hours exposure
Procedure, shortened: as §1

SK-MEL-28 = assay: Inhibition of cells growth by colorimetric assay (SRB), SK-MEL-28; type: cell-based; conditions: MEL-28, SRB, 48 hours exposure
Procedure, shortened: as §1

HT-29 = assay: Inhibition of cells growth by colorimetric assay (SRB), HT-29; type: cell-based; conditions: SRB, 48 hours exposure
Procedure, shortened: as §1

LoVo = assay: Inhibition of cells growth by colorimetric assay (SRB), LoVo; type: cell-based; conditions: LOVO, SRB, 48 hours exposure
Procedure, shortened: as §1

LoVo-Dox = assay: Inhibition of cells growth by colorimetric assay (SRB), LoVo-Dox; type: cell-based; conditions: SRB, 48 hours exposure
Procedure, shortened: as §1

DU-145 = assay: Inhibition of cells growth by colorimetric assay (SRB), DU-145; type: cell-based; conditions: SRB, 48 hours exposure
Procedure, shortened: as §1

LNCaP = assay: Inhibition of cells growth by colorimetric assay (SRB), LNCaP; type: cell-based; conditions: LNCAP, SRB, 48 hours exposure
Procedure, shortened: as §1

SK-BR-3 = assay: Inhibition of cells growth by colorimetric assay (SRB), SK-BR-3; type: cell-based; conditions: SK-BR3, SRB, 48 hours exposure
Procedure, shortened: as §1

IGROV-1 = assay: Inhibition of cells growth by colorimetric assay (SRB), IGROV-1; type: cell-based; conditions: IGROV, SRB, 48 hours exposure
Procedure, shortened: as §1

IGROV-ET = assay: Inhibition of cells growth by colorimetric assay (SRB), IGROV-ET; type: cell-based; conditions: IGROV-ET, SRB, 48 hours exposure
Procedure, shortened: as §1

SK-OV-3 = assay: Inhibition of cells growth by colorimetric assay (SRB), SK-OV-3; type: cell-based; conditions: SRB, 48 hours exposure
Procedure, shortened: as §1

PANC-1 = assay: Inhibition of cells growth by colorimetric assay (SRB), PANC-1; type: cell-based; conditions: SRB, 48 hours exposure
Procedure, shortened: as §1

HMEC1 = assay: Inhibition of cells growth by colorimetric assay (SRB), HMEC1; type: cell-based; conditions: SRB, 48 hours exposure
Procedure, shortened: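 Compound in DMSO/EtOH/PBS vehicle was applied at 10 to 10^−8 μg/ml to attached cells (5×10^3/well, 18 h) for 48 h. Cells were then fixed with cold TCA and stained with 0.4% SRB in 1% acetic acid.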

Excerpt for Heart: (§2) Toxicity was asssessed by the methods reported in Toxicology in Vitro, 15 (2001) 571-577, J. Luber Narod et al.: “Evaluation of the use of in vitro methodolodies as tools for screening new compounds for potential in vivo toxicity”.
Excerpt for Kidney: as §2
Excerpt for Liver: as §2
Excerpt for Myelo: as §2
Excerpt for Skeletal: as §2

COc1cc2c(cc1OC(=O)Cc1cc(=O)oc3cc(N(C)C)ccc13)CCN[C@]21CS[C@@H]2c3c(OC(C)=O)c(C)c4c(c3[C@H](COC1=O)N1C2[C@H]2c3c(cc(C)c(OC)c3OC(=O)Cc3cc(=O)oc5cc(N(C)C)ccc35)C[C@@H]([C@@H]1O)N2C)OCO4 (some centres unmarked) [Compound 77]
K-562 TGI (K-562): 7.77E-10
GI50 (K-562; read-out: K-562 GI50): 0.277 nM
LC50 (50% cell killing) (K-562; read-out: K-562 LC50): 37.9 nM
TGI A-549 (A-549): 3.64E-09
GI50 (A-549; read-out: GI50 A-549): 2.11 nM
LC50 (concentration for 50% cell killing) (A-549; read-out: A-549 LC50): 6.29 nM
MEL-28 TGI (SK-MEL-28): 5.06E-10
GI50 (SK-MEL-28; read-out: MEL-28 GI50): 0.266 nM
CC50 (SK-MEL-28; read-out: MEL-28 LC50): 0.962 nM
HT-29 TGI (HT-29; HT-29): 9.52E-09
GI50 (HT-29; HT-29, read-out: HT-29 GI50): 2.96 nM
LC50 (concentration for 50% cell killing) (HT-29; Homo sapiens, HT-29, 48 h, read-out: HT-29 LC50, HT-29): 10100 nM
LOVO TGI (LoVo): 3.96E-09
GI50 (LoVo; read-out: LOVO GI50): 1.91 nM
LC50 (concentration for 50% cell killing) (LoVo; read-out: LOVO LC50): 8.21 nM
CC50 (LoVo-Dox; Homo sapiens, 48 h, read-out: LOVO-DOX LC50, LOVO-DOX): 10100 nM
LOVO-DOX TGI (LoVo-Dox; LOVO-DOX): 9.39E-08
GI50 (LoVo-Dox; LOVO-DOX, read-out: LOVO-DOX GI50): 31.3 nM
DU-145 TGI (DU-145; DU-145): 1.45E-09
GI50 (DU-145; DU-145, read-out: DU-145 GI50): 0.488 nM
CC50 (DU-145; Homo sapiens, DU-145, 48 h, read-out: DU-145 LC50, DU-145): 10100 nM
LNCAP TGI (LNCaP): 6.12E-10
GI50 (LNCaP; read-out: LNCAP GI50): 0.328 nM
CC50 (LNCaP; read-out: LNCAP LC50): 1.58 nM
SK-BR3 TGI (SK-BR-3): 2.04E-09
GI50 (SK-BR-3; read-out: SK-BR3 GI50): 0.475 nM
CC50 (SK-BR-3; read-out: SK-BR3 LC50): 8.12 nM
IGROV TGI (IGROV-1): 1.53E-09
GI50 (IGROV-1; read-out: IGROV GI50): 0.454 nM
CC50 (IGROV-1; read-out: IGROV LC50): 8.82 nM
IGROV-ET TGI (IGROV-ET): 9.57E-08
GI50 (IGROV-ET; read-out: IGROV-ET GI50): 4.22 nM
CC50 (IGROV-ET; read-out: IGROV-ET LC50): 303 nM
GI50 (SK-OV-3; Homo sapiens, SK-OV-3, 48 h, SK-OV3, read-out: SK-OV3 GI50): 2.55 nM
LC50 (SK-OV-3; Homo sapiens, SK-OV-3, 48 h, read-out: SK-OV3 LC50, SK-OV3): 10100 nM
SK-OV3 TGI (SK-OV-3; SK-OV3): 7.76E-09
GI50 (PANC-1; Homo sapiens, PANC-1, 48 h, PANC-1, read-out: PANC-1 GI50): 3.27 nM
LC50 (concentration for 50% net cell kill) (PANC-1; Homo sapiens, PANC-1, 48 h, read-out: PANC-1 LC50, PANC-1): 6300 nM
PANC-1 TGI (PANC-1; PANC-1): 9.14E-09
HMEC-1 TGI (HMEC1; HMEC-1): 5.28E-08
GI50 (HMEC1; HMEC-1, read-out: HMEC-1 GI50): 5.28 nM
LC50 (HMEC1; Homo sapiens, HMEC-1, 48 h, read-out: HMEC-1 LC50, HMEC-1): 10100 nM
Toxicity Data Liver (Liver): 9.53E-09
Toxicity Data Heart (Heart): 1.64E-08
Toxicity Data Myelo (Myelo): 8.52E-09
Toxicity Data Skeletal (Skeletal): 2.20E-09
Toxicity Data Kidney (Kidney): 3.22E-09
